Data: paper PMC2923493 (Tetrahedron, 2010)
Read-outs that look alike come from different tables or passages of the source.

Key:
[1] = tested on: HT-29 human colon cancer cells; assay: Cytotoxicity assay; assay type: cell-based; settings: HT-29 cells, three days
[2] = biological target: T1, chymotrypsin-like proteasome activity (Homo sapiens, UniProt P28074); assay: Proteasome inhibition assay; assay type: biochemical
T1 sequence (P28074 60-263): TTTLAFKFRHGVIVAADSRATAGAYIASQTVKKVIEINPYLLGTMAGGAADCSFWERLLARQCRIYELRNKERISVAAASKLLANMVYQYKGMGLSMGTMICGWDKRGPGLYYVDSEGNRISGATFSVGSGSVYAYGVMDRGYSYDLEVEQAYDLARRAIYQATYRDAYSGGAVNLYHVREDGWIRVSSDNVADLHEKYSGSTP

[3] = tested on: LNCaP, HT-29, MCF-7 and MDA-MB 435 human cancer cells; assay: In vivo hollow fiber assay; settings: highest dose tested (20 mg/kg), mice, intraperitoneal, all cell lines
human SPC-A1 cell [4] = settings: cited from earlier work
human SPC-A1 cell [5] = settings: cited from earlier work; remark: listed apart in the source
[6] = read-out: Proteasome Inhibition IC50, Suc-LLVY-AMC 10 μM

Compound	Cytotoxicity ED50 [1]	IC50 [2, 6]	also measured
CC1(C)Oc2c(cc3c(=O)c4c(O)cc(O)cc4oc3c2O)[C@H](O)[C@H]1O [Compound 2, (3R,4S)-3,4,7,9,12-pentahydroxy-2,2-dimethyl-3,4-dihydropyrano[3,2-b]xanthen-6(2H)-one]	>10 µM		
CO[C@H]1[C@H]2C(=O)c3c(O)c4c(c(CC=C(C)C)c3O[C@@]23[C@@H]2C[C@H]1C(=O)[C@]3(C/C=C(/C)C(=O)O)OC2(C)C)OC(C)(C)C=C4 [Compound 3, isomoreollic acid]	1.9 µM	> 10 µM	
CC(C)=CCc1c(O)c(CC=C(C)C)c2c(c1O)C(=O)C1=C[C@H]3C[C@@H]4C(C)(C)O[C@@](C/C=C(/C)C(=O)O)(C3=O)[C@@]14O2 [Compound 4, isogaudichaudiic acid]	3.2 µM	> 10 µM	
C=C(C)C(O)Cc1c2c(c(O)c3c1O[C@]14C(=C[C@H]5C[C@@H]1C(C)(C)O[C@@]4(C/C=C(\C)C(=O)O)C5=O)C3=O)C=CC(C)(C)O2 (some centres unmarked) [Compound 5, isogaudichaudiic acid E]	2.6 µM	> 10 µM	
CC(C)=CCc1c2c(c(O)c3c1O[C@]14C(=C[C@H]5C[C@@H]1C(C)(C)O[C@@]4(C/C=C(/C)C(=O)O)C5=O)C3=O)CC(O)C(C)(C)O2 (stereo partly drawn) [Compound 6, (5R,7S,10aS,27S)-11,12-dihydro-12-hydroxymorellic acid]	2.9 µM		
O=C1c2c(O)cc(O)cc2O[C@H](c2ccc(O)cc2)[C@H]1c1c(O)cc(O)c2c(=O)cc(-c3ccc(O)c(O)c3)oc12 [Compound 8, morelloflavone]	>10 µM		IC50 [2]: 1.3 µM
O=C1c2c(O)cc(O)cc2O[C@@H](c2ccc(O)cc2)[C@@H]1c1c(O)cc(O)c2c(=O)cc(-c3ccc(O)cc3)oc12 [Compound 9, talbotaflavone]		4.4 µM	
CC(C)=CCc1c2c(c(O)c3c1O[C@]14C(=C[C@@H]5C[C@H]1C(C)(C)O[C@@]4(C/C=C(/C)C(=O)O)C5=O)C3=O)C=CC(C)(C)O2 [Compound 10, morellic acid]	0.36 µM	> 10 µM	Activity in in vivo hollow fiber assay [3]: inactive
CC(C)=CCC[C@]1(C)C=Cc2c(O)c3c(c(CC=C(C)C)c2O1)O[C@]12C(=C[C@@H]4C[C@H]1C(C)(C)O[C@@]2(C/C=C(/C)C(=O)O)C4=O)C3=O [gambogic acid]			Inhibition of SPC-A1 cell growth in vitro (human SPC-A1 cell [4]): inhibited; Inhibition of SPC-A1 cell growth in vivo (human SPC-A1 cell [5]): inhibited
isogaudichaudiic acid B [Compound 7]	>10 µM		
